Test system: SK-RC-52.hFAP tumors
Test: Quantitative biodistribution in SK-RC-52.hFAP tumor bearing mice
Format: in vivo, mouse (female athymic Balb/c AnNRj-Foxn1)
Conditions: i.v. 250 nmol/kg, 50 MBq/kg
Procedure: SK-RC-52.hFAP were grown to 80% confluence in RPMI-1640 with 10% fetal bovine serum (FBS) and 1% antibiotic-antimycotic and detached with Trypsin-EDTA (ethylenediaminetetraacetic acid) 0.05%. Tumor cells were resuspended in Hanks' Balanced Salt Solution medium. Aliquots of 5 million cells (100 μL of suspension) were injected subcutaneously in the right flank of female athymic Balb/c AnNRj-Foxn1 mice (6 to 8 wk of age).
Radiolabeling of ESV6-DOTAGA, Bi-ESV6-DOTAGA, Tri-ESV6-DOTAGA, Tetra-ESV6-DOTAGA, Hexa-ESV6-DOTAGA, Octa-ESV6-DOTAGA and FAP-2286 with lutetium-177 (a therapeutic radionuclide) was performed with different specific activities for three different studies (biodistribution, therapy and dose optimization).
Prior to the biodistribution study, precursors (100 nmol) were dissolved in 100 μL of milliQ water and diluted with 200 μL of sodium acetate (1 M in water, pH=4.5). 20 MBq of ^177Lu solution were added and the mixture was heated at 90 °C for 10 minutes, followed by dilution with […] of PBS to achieve final volume of 2 mL (20 doses of 100 μL each).
ESV6-DOTAGA, Bi-ESV6-DOTAGA, Tri-ESV6-DOTAGA, Tetra-ESV6-DOTAGA, Hexa-ESV6-DOTAGA, Octa-ESV6-DOTAGA and FAP-2286 were radiolabeled with ^177Lu as described above. Tumors were allowed to grow to an average volume of 300 mm^3. Mice were randomized and injected intravenously with radiolabeled preparations of ^177Lu-ESV6, ^177Lu-Bi-ESV6, ^177Lu-Tri-ESV6, Tetra-ESV6-DOTAGA, Hexa-ESV6-DOTAGA, Octa-ESV6-DOTAGA or ^177Lu-FAP-2286 (250 nmol/kg; 50 MBq/kg). Mice were euthanized at different time-points after the intravenous injection by CO2 asphyxiation. Tumors, organs, and blood were collected, weighted, and radioactivity was measured with a Packard Cobra Gamma Counter. Values are expressed as percent ID/g±SD [FIG. 4]. The % ID/g in the tumors was corrected considering the SK-RC-52.hFAP tumor growth rate.
Quantitative in vivo biodistribution of ^177Lu-ESV6-DOTAGA, ^177Lu-Bi-ESV6-DOTAGA, ^177Lu-Tri-ESV6-DOTAGA, ^177Lu-FAP-2286, Tetra-ESV6-DOTAGA, Hexa-ESV6-DOTAGA and Octa-ESV6-DOTAGA at different time points after intravenous administration (250 nmol/kg, 50 MBq/kg) in mice bearing SK-RC-52.hFAP tumors, are shown in Tables 1 to 4 and 10 to 12. Data are reported as % ID/g±standard deviation.
Tumor-to-organ ratios of ^177Lu-ESV6-DOTAGA, ^177Lu-Bi-ESV6-DOTAGA, ^177Lu-Tri-ESV6-DOTAGA, ^177Lu-FAP-2286, Tetra-ESV6-DOTAGA, Hexa-ESV6-DOTAGA and Octa-ESV6-DOTAGA, at different time points after intravenous administration (250 nmol/kg, 50 MBq/kg) in mice bearing SK-RC-52.hFAP tumors, are shown in Tables 5 to 8 and 13 to 15. Avg.=average; Std.d=standard deviation.

With `N#C[C@@H]1CC(F)(F)CN1C(=O)CNC(=O)c1ccnc2c(NC(=O)CCC(=O)NCCNC(=O)CCOCC(COCCC(=O)NCCNC(=O)CCC(=O)Nc3cccc4c(C(=O)NCC(=O)N5CC(F)(F)C[C@H]5C#N)ccnc34)(COCCC(=O)NCCNC(=O)CCC(=O)Nc3cccc4c(C(=O)NCC(=O)N5CC(F)(F)C[C@H]5C#N)ccnc34)NC(=O)CCC(C(=O)O)N3CCN(CC(=O)O)CCN(CC(=O)O)CCN(CC(=O)O)CC3)cccc12` (stereo partly drawn) [Tri-ESV6-DOTAGA, 2,2′,2″-(10-(19-carboxy-1-((4-((2-((S)-2-cyano-4,4-difluoropyrrolidin-1-yl)-2-oxoethyl)carbamoyl)quinolin-8-yl)amino)-14,14-bis((3-((2-(4-((4-((2-((S)-2-cyano-4,4-difluoropyrrolidin-1-yl)-2-oxoethyl)carbamoyl)quinolin-8-yl)amino)-4-oxobutanamido)ethyl)amino)-3-oxopropoxy)methyl)-1,4,9,16-tetraoxo-12-oxa-5,8,15-triazanonadecan-19-yl)-1,4,7,10-tetraazacyclododecane-1,4,7-triyl)triacetic acid] the “tumor uptake / biodistribution profile, in words” value was “remarkably high tumor uptake even after 48, 72 and 96 hours post injection”.

From patent publication US20260364214A1, “MULTIVALENT FIBROBLAST ACTIVATION PROTEIN LIGANDS FOR TARGETED DELIVERY APPLICATIONS” (Philochem AG, priority 2022, published 2026)
